# Tests used:
# T-47D [1] = test: NCI one-dose SRB growth assay; format: cell-based; details: Homo sapiens, T47D; T-47D (Breast Cancer), 10^-5 M, 48 h; read-out: % Growth Inhibition (GI %)
# In short: (§1)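 Compounds tested at a single concentration of 10^-5M on cultured human tumor cells for 48 h. Sulforhodamine B protein staining read spectrophotometrically; values are growth percentage of treated cells relative to untreated controls.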
# NCI-H322M = test: NCI one-dose SRB growth assay; format: cell-based; details: Homo sapiens; NCI-H322M (Non-Small Cell Lung Cancer), 10^-5 M, 48 h; read-out: % Growth Inhibition (GI %)
# HL-60(TB) = test: NCI one-dose SRB growth assay; format: cell-based; details: Homo sapiens; HL-60(TB) (Leukemia), 10^-5 M, 48 h; read-out: % Growth Inhibition (GI %)
# SK-MEL-2 = test: NCI one-dose SRB growth assay; format: cell-based; details: Homo sapiens; SK-MEL-2 (Melanoma), 10^-5 M, 48 h; read-out: % Growth Inhibition (GI %)
# ACHN [2] = test: NCI one-dose SRB growth assay; format: cell-based; details: Homo sapiens; ACHN (Renal Cancer), 10^-5 M, 48 h; read-out: % Growth Inhibition (GI %)
# In short: as §1
# HOP-62 = test: NCI one-dose SRB growth assay; format: cell-based; details: Homo sapiens; HOP-62 (Non-Small Cell Lung Cancer), 10^-5 M, 48 h; read-out: % Growth Inhibition (GI %)
# In short: as §1
# prostate cancer = test: NCI five-dose SRB assay, subpanel average; details: 48 h; for GI50 / CC50: Homo sapiens; for GI50: read-out: GI50 (median growth inhibitory); for CC50: read-out: LC50 (median lethal); for TGI (total growth inhibitory): average over prostate cancer subpanel, five concentrations
# NSC lung cancer = test: NCI five-dose SRB assay, subpanel average; details: 48 h; for GI50 / CC50: Homo sapiens; for GI50: read-out: GI50 (median growth inhibitory); for CC50: read-out: LC50 (median lethal); for TGI (total growth inhibitory): average over NSC lung cancer subpanel, five concentrations
# ovarian cancer = test: NCI five-dose SRB assay, subpanel average; details: 48 h; for GI50 / CC50: Homo sapiens; for GI50: read-out: GI50 (median growth inhibitory); for CC50: read-out: LC50 (median lethal); for TGI (total growth inhibitory): average over ovarian cancer subpanel, five concentrations
# CNS cancer = test: NCI five-dose SRB assay, subpanel average; details: 48 h; for GI50 / CC50: Homo sapiens; for GI50: read-out: GI50 (median growth inhibitory); for CC50: read-out: LC50 (median lethal); for TGI (total growth inhibitory): average over CNS cancer subpanel, five concentrations
# renal cancer = test: NCI five-dose SRB assay, subpanel average; details: 48 h; for GI50 / CC50: Homo sapiens; for GI50: read-out: GI50 (median growth inhibitory); for CC50: read-out: LC50 (median lethal); for TGI (total growth inhibitory): average over renal cancer subpanel, five concentrations
# melanoma = test: NCI five-dose SRB assay, subpanel average; details: 48 h; for GI50 / CC50: Homo sapiens; for GI50: read-out: GI50 (median growth inhibitory); for CC50: read-out: LC50 (median lethal); for TGI (total growth inhibitory): average over melanoma subpanel, five concentrations
# leukemia = test: NCI five-dose SRB assay, subpanel average; details: 48 h; for GI50 / CC50: Homo sapiens; for GI50: read-out: GI50 (median growth inhibitory); for CC50: read-out: LC50 (median lethal); for TGI (total growth inhibitory): average over leukemia subpanel, five concentrations
# breast cancer = test: NCI five-dose SRB assay, subpanel average; details: 48 h; for GI50 / CC50: Homo sapiens; for GI50: read-out: GI50 (median growth inhibitory); for CC50: read-out: LC50 (median lethal); for TGI (total growth inhibitory): average over breast cancer subpanel, five concentrations
# colon cancer = test: NCI five-dose SRB assay, subpanel average; details: 48 h; for GI50 / CC50: Homo sapiens; for GI50: read-out: GI50 (median growth inhibitory); for CC50: read-out: LC50 (median lethal); for TGI (total growth inhibitory): average over colon cancer subpanel, five concentrations
# MDA-MB-468 = test: NCI one-dose SRB growth assay; format: cell-based; details: Homo sapiens; MDA-MB-468 (Breast Cancer), 10^-5 M, 48 h; read-out: % Growth Inhibition (GI %)
# In short: as §1
# [3] = system: 60 human tumor cell line panel; test: NCI 60 cell line one-dose SRB primary anticancer assay; format: cell-based; details: 60 cell lines assay in one dose, 10µM (title; head prints 10.0 mM), 48 h; for inhibition at 10 µM: Homo sapiens, read-out: MGI % (Mean growth inhibition percentage)
# Protocol: A primary anticancer assay was performed for an approximately 60 human tumor cell line panel derived from nine neoplastic diseases, in accordance with the protocol of the Drug Evaluation Branch, National Cancer Institute, Bethesda, MD (Monks A. et al., J. Natl. Cancer Inst 1991, 83, 757-766; Boyd M.R. and Paull K.D., Drug. Dev. Res. 1995, 34, 91-109; Shoemaker R.H., Nat. Rev. Cancer 2006, 6, 813-823). Briefly, tested compounds were added to the culture at a single concentration (10^-5M), and the cultures were incubated for 48 h. End point determinations were made with a protein binding dye, sulforhodamine B (SRB). The results for each tested compound were reported as the growth percentage of the treated cells when compared to that of the untreated control cells. The percentage growth was evaluated spectrophotometrically versus controls not treated with test agents.
# 786-0 = test: NCI five-dose SRB growth assay; format: cell-based; details: Homo sapiens; 786-0 (Renal Cancer), 48 h
# COLO 205 = test: NCI five-dose SRB growth assay; format: cell-based; details: Homo sapiens; COLO 205 (Colon Cancer), 48 h
# T-47D [4] = test: NCI five-dose SRB growth assay; format: cell-based; details: Homo sapiens, T47D; T-47D (Breast Cancer), 48 h
# SK-MEL-5 = test: NCI five-dose SRB growth assay; format: cell-based; details: Homo sapiens; SK-MEL-5 (Melanoma), 48 h
# SN12C = test: NCI five-dose SRB growth assay; format: cell-based; details: Homo sapiens; SN12C (Renal Cancer), 48 h
# UACC-62 = test: NCI five-dose SRB growth assay; format: cell-based; details: Homo sapiens; UACC-62 (Melanoma), 48 h
# BT-549 = test: NCI five-dose SRB growth assay; format: cell-based; details: Homo sapiens; BT-549 (Breast Cancer), 48 h
# SF-268 = test: NCI five-dose SRB growth assay; format: cell-based; details: Homo sapiens; SF-268 (CNS Cancer), 48 h
# HCT-116 = test: NCI five-dose SRB growth assay; format: cell-based; details: Homo sapiens; HCT-116 (Colon Cancer), 48 h
# SF-539 = test: NCI five-dose SRB growth assay; format: cell-based; details: Homo sapiens; SF-539 (CNS Cancer), 48 h
# ACHN [5] = test: NCI five-dose SRB growth assay; format: cell-based; details: Homo sapiens; ACHN (Renal Cancer), 48 h
smiles,measurement,setting,value
"O=c1[nH]cc(F)c(=O)[nH]1 [Compound 5-FU, 5-fluorouracil, reference compound]",inhibition at 10 µM,T-47D [1],56.7%
same,inhibition at 10 µM,NCI-H322M,59.5%
same,inhibition at 10 µM,HL-60(TB),47.9%
same,inhibition at 10 µM,SK-MEL-2,95.5%
same,inhibition at 10 µM,ACHN [2],39.3%
same,inhibition at 10 µM,HOP-62,47.8%
same,GI50,prostate cancer,22.7 µM
same,CC50,prostate cancer,> 100 µM
same,TGI (total growth inhibitory),prostate cancer,c (Compounds showed values > 100µM)
same,GI50,NSC lung cancer,> 100 µM
same,CC50,NSC lung cancer,> 100 µM
same,TGI (total growth inhibitory),NSC lung cancer,c (Compounds showed values > 100µM)
same,GI50,ovarian cancer,61.4 µM
same,CC50,ovarian cancer,> 100 µM
same,TGI (total growth inhibitory),ovarian cancer,c (Compounds showed values > 100µM)
same,GI50,CNS cancer,72.1 µM
same,CC50,CNS cancer,> 100 µM
same,TGI (total growth inhibitory),CNS cancer,c (Compounds showed values > 100µM)
same,GI50,renal cancer,45.6 µM
same,CC50,renal cancer,> 100 µM
same,TGI (total growth inhibitory),renal cancer,c (Compounds showed values > 100µM)
same,GI50,melanoma,70.6 µM
same,CC50,melanoma,> 100 µM
same,TGI (total growth inhibitory),melanoma,c (Compounds showed values > 100µM)
same,GI50,leukemia,15.1 µM
same,CC50,leukemia,> 100 µM
same,TGI (total growth inhibitory),leukemia,c (Compounds showed values > 100µM)
same,GI50,breast cancer,76.4 µM
same,CC50,breast cancer,> 100 µM
same,TGI (total growth inhibitory),breast cancer,c (Compounds showed values > 100µM)
same,GI50,colon cancer,8.4 µM
same,CC50,colon cancer,> 100 µM
same,TGI (total growth inhibitory),colon cancer,c (Compounds showed values > 100µM)
CCn1cc(C(=O)O)c(=O)c2cc(F)c(N3CCN(S(=O)(=O)c4c(C)cc(C)cc4C)CC3)cc21 [Compound 6a],inhibition at 10 µM,T-47D [1],25.9%
same,inhibition at 10 µM,NCI-H322M,16.5%
same,inhibition at 10 µM,HL-60(TB),26.9%
same,inhibition at 10 µM,SK-MEL-2,11.3%
same,inhibition at 10 µM,ACHN [2],24.2%
same,inhibition at 10 µM,HOP-62,28.5%
same,inhibition at 10 µM,MDA-MB-468,19.7%
same,PCE (Positive cytotoxic effect: ratio between number of cell lines with percentage growth inhibition from 10 to >100 and total number of cell lines),[3],46/58
same,RGI % (Range of growth inhibition percentage),[3],66.90 to 10.12%
same,inhibition at 10 µM,[3],18.3%
Cc1cc(C)c(S(=O)(=O)N2CCN(c3cc4c(cc3F)c(=O)c(C(=O)O)cn4C3CC3)CC2)c(C)c1 [Compound 6b],GI50,786-0,4.08 µM
same,GI50,COLO 205,3.4 µM
same,GI50,T-47D [4],4.81 µM
same,inhibition at 10 µM,T-47D [1],37%
same,inhibition at 10 µM,NCI-H322M,25.3%
same,inhibition at 10 µM,HL-60(TB),91.3%
same,inhibition at 10 µM,SK-MEL-2,< 10%
same,inhibition at 10 µM,ACHN [2],48.7%
same,inhibition at 10 µM,HOP-62,42.7%
same,inhibition at 10 µM,MDA-MB-468,34.9%
same,GI50,prostate cancer,3.4 µM
same,CC50,prostate cancer,> 100 µM
same,TGI (total growth inhibitory),prostate cancer,c (Compounds showed values > 100µM)
same,GI50,NSC lung cancer,2.88 µM
same,CC50,NSC lung cancer,> 100 µM
same,TGI (total growth inhibitory),NSC lung cancer,c (Compounds showed values > 100µM)
same,GI50,SK-MEL-5,3.03 µM
same,PCE (Positive cytotoxic effect: ratio between number of cell lines with percentage growth inhibition from 10 to >100 and total number of cell lines),[3],56/58
same,RGI % (Range of growth inhibition percentage),[3],91.28 to 13.08%
same,inhibition at 10 µM,[3],43.8%
same,GI50,SN12C,2.61 µM
same,GI50,ovarian cancer,2.89 µM
same,CC50,ovarian cancer,> 100 µM
same,TGI (total growth inhibitory),ovarian cancer,c (Compounds showed values > 100µM)
same,GI50,UACC-62,2.43 µM
same,GI50,CNS cancer,2.95 µM
same,CC50,CNS cancer,> 100 µM
same,TGI (total growth inhibitory),CNS cancer,c (Compounds showed values > 100µM)
same,GI50,BT-549,3.34 µM
same,GI50,SF-268,3.96 µM
same,GI50,HCT-116,2.98 µM
same,GI50,renal cancer,2.78 µM
same,CC50,renal cancer,> 100 µM
same,TGI (total growth inhibitory),renal cancer,c (Compounds showed values > 100µM)
same,GI50,melanoma,22.3 µM
same,CC50,melanoma,> 100 µM
same,TGI (total growth inhibitory),melanoma,c (Compounds showed values > 100µM)
same,GI50,SF-539,3.14 µM
same,GI50,ACHN [5],2.46 µM
same,GI50,leukemia,2.57 µM
same,CC50,leukemia,> 100 µM
same,TGI (total growth inhibitory),leukemia,76.70 µM
same,GI50,breast cancer,2.85 µM
same,CC50,breast cancer,> 100 µM
same,TGI (total growth inhibitory),breast cancer,76.89 µM
same,GI50,colon cancer,3.46 µM
same,CC50,colon cancer,> 100 µM
same,TGI (total growth inhibitory),colon cancer,c (Compounds showed values > 100µM)
